Consider 7 molecules from patent US8921307B2, “Synthetic linear apelin mimetics for the treatment of heart failure” (priority 2012, dated 2014).

SMILES strings stand for the structures. Where a SMILES comes first, the peptide text is derived from it. [ ]: non-standard residue; d: D form. The star is where a group is joined. pGlu = O=C1CC[C@@H](C(=O)O)N1; dNle = CCCC[C@@H](N)C(=O)O; Aib = CC(C)(N)C(=O)O; tBu = CC(C)(C)*

A short description of series [1]: Surrogate Activity-Based Plasma Stability Assay. Conditions: rat, Surrogate activity-based Plasma stability t½. In kind it is in vitro ADME. Here is the method: Stability half-life was then calculated by the formula, t½=0.693÷k Surrogate Activity-Based Plasma Stability Assay: […]
2) Calculate slope of value above and […]

For a further series, the target named is T1, hAPJ (Homo sapiens, UniProt P35414).
T1 sequence (P35414 1-380): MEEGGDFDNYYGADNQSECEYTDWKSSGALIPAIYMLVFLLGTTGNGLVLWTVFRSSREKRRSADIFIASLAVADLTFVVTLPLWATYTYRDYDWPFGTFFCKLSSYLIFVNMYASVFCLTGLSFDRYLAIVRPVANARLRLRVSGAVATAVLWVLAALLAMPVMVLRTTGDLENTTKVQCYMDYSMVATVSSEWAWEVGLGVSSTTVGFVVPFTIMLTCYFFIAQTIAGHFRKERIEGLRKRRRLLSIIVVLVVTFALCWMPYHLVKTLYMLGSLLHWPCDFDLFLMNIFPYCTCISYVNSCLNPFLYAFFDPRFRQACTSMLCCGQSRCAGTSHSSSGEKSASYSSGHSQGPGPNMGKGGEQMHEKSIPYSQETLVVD
The series is described as follows: hAPJ Calcium Flux Assay. In kind it is cell-based. Conditions: Chem-5 APJ stable cells, FLIPR calcium flux stimulation; read-out: hAPJ Ca^2+ Flux EC50. Here is the method: Chem-5 APJ stable cells (Millipore # HTS068C) were plated in 384-well format with 10,000 cells/well in 25 ul growth media, then grown 24 hours in a 37° C. tissue culture incubator. One hour before the assay, 25 ul/well FLIPR Calcium 4 dye (Molecular Devices R8142) with 2.5 mM probenecid was added, and cells were incubated one hour in a 37° C. tissue culture incubator. Peptides were solubilized in HBSS, HEPES & 0.1% BSA buffer, and serially-diluted 10-fold, from 50 uM to […], in triplicate. FLIPR Tetra was used to add peptide to the cells with dye (1:5, for final peptide concentrations ranging from 10 uM to […]). FLIPR dye inside the cells emitted fluorescence after binding to calcium, while fluorescence from outside the cells was masked. Fluorescence was measured using 470-495 excitation and 515-575 emission wavelengths on the FLIPR Tetra. Readings were done for 3 minutes total, beginning 10 seconds before the peptide addition. Maximum-minimum values were calculated and plotted for each peptide concentration, and GraphPad prism software was used to calculate EC50 values at the curve inflection points, for calcium flux stimulation by peptides.

As to `CCCC[C@@H](NC(=O)[C@@H]1CCCCN1C(=O)CNC(=O)[C@H](CCCCN)NC(=O)[C@H](Cc1c[nH]cn1)NC(=O)[C@@H](C)NC(=O)[C@H](CC(C)C)NC(=O)[C@H](CCCNC(=N)N)NC(=O)[C@@H]1CCCN1C(=O)[C@H](CCCNC(=N)N)NC(=O)[C@@H]1CCC(=O)N1)C(=O)N[C@H](C)C(=O)N[C@H](Cc1ccccc1)C(=O)O` [Example 1, pE-R-P-R-L-a-H-K-G-Pip-nle-a-f-OH], the half-life in series [1] is over 1000 min. Moreover, the concentration for a half-maximal effect (EC50) at hAPJ was 2.3 nM.
The like results for `CCCC[C@@H](NC(=O)[C@@H]1CCCN1C(=O)CNC(=O)[C@H](CCCCN)NC(=O)[C@@H](C)NC(=O)[C@H](CO)NC(=O)[C@@H](CC(C)C)NC(=O)[C@H](CCCNC(=N)N)NC(=O)[C@@H]1CCCN1C(=O)[C@H](CCCNC(=N)N)NC(=O)[C@@H]1CCC(=O)N1)C(=O)N[C@H](C)C(=O)N[C@H](Cc1ccccc1)C(=O)O` [Example 2, pE-R-P-R-(D-Leu)-S-a-K-G-P-nle-a-f-OH] ([pGlu]RPR[dL]S[dA]KGP[dNle][dA][dF]-OH) were, in that order, over 1000 min and 386 nM.
In the same order, the values of `CCCC[C@@H](NC(=O)[C@@H]1CCCN1C(=O)CNC(=O)[C@H](CCCCN)NC(=O)[C@H](Cc1c[nH]cn1)NC(=O)[C@@H](C)NC(=O)[C@H](CC(C)C)NC(=O)[C@H](CCCNC(=N)N)NC(=O)[C@@H]1CCCN1C(=O)[C@@H](CCCNC(=N)N)NC(=O)[C@@H]1CCC(=O)N1)C(=O)N[C@H](C)C(=O)N[C@H](Cc1ccccc1)C(=O)O` [Example 3, pE-r-P-R-L-a-H-K-G-P-nle-a-f-OH] are over 1000 min and 797 nM.
The like results for `CCCC[C@@H](NC(=O)[C@@H]1CCCN1C(=O)CNC(=O)[C@@H](CCCCN)NC(=O)C(C)(C)NC(=O)[C@H](CO)NC(=O)[C@H](CC(C)C)NC(=O)[C@H](CCCNC(=N)N)NC(=O)[C@@H]1CCCN1C(=O)[C@H](CCCNC(=N)N)NC(=O)[C@@H]1CCC(=O)N1)C(=O)N[C@H](C)C(=O)N[C@H](Cc1ccccc1)C(=O)O` [Example 5, pE-R-P-R-L-S-Aib-k-G-P-nle-a-f-OH] ([pGlu]RPRLS[Aib][dK]GP[dNle][dA][dF]-OH) were, in that order, over 1000 min and 79.9 nM.
The molecule `CCCC[C@@H](NC(=O)[C@@H]1CCCN1C(=O)CNC(=O)[C@H](CCCCN)NC(=O)[C@H](Cc1c[nH]cn1)NC(=O)[C@@H](C)NC(=O)[C@H](CC(C)C)NC(=O)[C@H](CCCNC(=N)N)NC(=O)[C@@H]1CCCN1C(=O)[C@H](CCCNC(=N)N)NC(=O)[C@@H]1CCC(=O)N1)C(=O)N[C@H](Cc1ccccc1)C(=O)O` [Example 6, pE-R-P-R-L-a-H-K-G-P-nle-f-OH] had a half-life in series [1] of over 1000 min. The EC50 on hAPJ was found to be 3.1 nM.
The like results for `CCCC[C@@H](NC(=O)[C@@H]1CCCN1C(=O)CNC(=O)[C@H](CCCCN)NC(=O)[C@H](Cc1c[nH]cn1)NC(=O)[C@@H](CSC(C)(C)C)NC(=O)[C@H](CC(C)C)NC(=O)[C@H](CCCNC(=N)N)NC(=O)[C@@H]1CCCN1C(=O)[C@H](CCCNC(=N)N)NC(=O)[C@@H]1CCC(=O)N1)C(=O)N[C@H](C)C(=O)N[C@H](Cc1ccccc1)C(=O)O` [Example 7, pE-R-P-R-L-c(tBu)-H-K-G-P-nle-a-f-OH] ([pGlu]RPRL[dC](tBu)HKGP[dNle][dA][dF]-OH) were, in that order, over 1000 min and 693 nM.
In series [1], `CCCC[C@@H](NC(=O)[C@@H]1CCCN1C(=O)CNC(=O)[C@H](CCCCN)NC(=O)[C@H](Cc1c[nH]cn1)NC(=O)[C@@H](C)NC(=O)[C@H](CC(C)C)NC(=O)[C@H](CCCNC(=N)N)NC(=O)[C@@H]1CCCN1C(=O)[C@H](CCCNC(=N)N)NC(=O)[C@@H]1CCC(=O)N1)C(=O)NCCc1ccccc1` [Example 32, pE-R-P-R-L-a-H-K-G-P-nle-NH(Phenethyl)] displayed a half-life of 47.7 min.
